Measurements reported in article PMC11788587, “Validating Low‐Dose Iohexol as a Marker for Glomerular Filtration Rate by In Vitro and In Vivo Studies” (Clinical and Translational Science, 2025).

Tests used:
[1] = tested on: OCT2; set-up: method as in ref 15 Yang et al.; conditions: rat kidneys; ref 15 Yang et al.; cited from earlier work
[2] = cited from earlier work
[3] = target: T1, hOATP1B1 (Homo sapiens, UniProt Q9Y6L6); assay: Inhibition of hOATP1B1-mediated 3H-estrone sulfate uptake, stably transfected 293 cells; assay type: cell-based; conditions: substrate 0.01 μM 3H-estrone sulfate, median (95% CI)
T1 construct: expressed in transfected cells; host or cells: 293 cells (control: empty vector)
T1 sequence (Q9Y6L6 1-691): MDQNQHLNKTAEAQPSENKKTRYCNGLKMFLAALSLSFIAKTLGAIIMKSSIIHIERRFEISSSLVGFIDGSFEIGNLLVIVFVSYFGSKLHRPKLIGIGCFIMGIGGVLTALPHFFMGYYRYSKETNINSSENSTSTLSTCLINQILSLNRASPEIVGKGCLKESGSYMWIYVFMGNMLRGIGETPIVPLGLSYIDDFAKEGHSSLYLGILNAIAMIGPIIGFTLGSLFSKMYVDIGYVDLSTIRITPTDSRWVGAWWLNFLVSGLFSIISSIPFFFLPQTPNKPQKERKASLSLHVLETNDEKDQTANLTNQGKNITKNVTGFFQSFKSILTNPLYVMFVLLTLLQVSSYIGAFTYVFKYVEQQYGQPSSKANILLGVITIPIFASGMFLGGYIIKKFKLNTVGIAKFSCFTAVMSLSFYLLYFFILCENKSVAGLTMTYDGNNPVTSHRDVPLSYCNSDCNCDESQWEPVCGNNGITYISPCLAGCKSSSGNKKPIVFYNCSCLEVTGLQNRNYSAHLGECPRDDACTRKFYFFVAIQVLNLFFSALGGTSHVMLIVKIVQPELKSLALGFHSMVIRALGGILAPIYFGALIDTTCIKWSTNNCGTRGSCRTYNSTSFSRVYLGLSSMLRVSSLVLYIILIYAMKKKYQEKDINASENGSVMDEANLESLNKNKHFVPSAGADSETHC
Text: We characterized the inhibitory potential of iohexol on major drug transporters recommended by regulatory agencies, which were previously assessed in a clinical transporter phenotyping cocktail study. These transporters include hOAT1, hOAT3, hOCT1, hOCT2, hMATE1, hMATE2K, human organic anion transporter polypeptides (hOATP)1B1, hOATP1B3, and human multidrug resistance protein (hMDR)1. Additionally, we investigated whether iohexol is a substrate for any of the renal transporters among these, including hOAT1/3, hOCT1/2, and hMATE1/2K. Cell‐based uptake assays were used to assess the activities of hOAT1/3, hOCT1/2, hMATE1/2K, and hOATP1B1/1B3. Inside‐out membrane vesicle uptake assays were used to evaluate the activity of hMDR1.
To determine the maximal inhibitory potential of iohexol, intracellular accumulation of a standard substrate was measured with and without the clinically relevant highest concentrations of iohexol. Control inhibitors were tested in each experiment.
In all subsequent in vitro studies, control experiments were conducted to validate the results. […] Each condition, including cells or vesicles with the transporter and their respective controls, was analyzed in at least three replicates. […]
Uptake assays were carried out with stably transfected 293 cells expressing hOATP1B1 or hOATP1B3, as well as cells containing an empty vector, using the method described by Hsin CH, et al..^1 For the inhibition assays, cells were incubated with the radiolabeled standard substrates specific to each transporter: 0.01 μM ^3H-estrone sulfate for hOATP1B1, and 0.02 μM ^3H-bromosulphophthalein (BSP) for hOATP1B3. […] The accumulation of radio-labelled probe substrates (^3H) in the cell lysate is determined using a Tri-Carb 2810 liquid scintillation counter (PerkinElmer, Waltham, MA, USA) as described previously.^1 Cellular protein amount was determined in parallel from 6 paired wells per cell line and experimental day, using the Bradford method.^2 The 1X lysis buffer (5X lysis buffer from Promega, diluted 1+4 [v/v] in ddH2O) was used as the lysis buffer. […]

Inhibitory effect (% reduction of specific activity) ([3]; 20 mM iohexol): no notable inhibitory effects
inhibition at 1 min, 2 mM ([3]; human, stably transfected 293 cells expressing hOATP1B1, probe 3H-estrone sulfate, 2 mM iohexol, read-out: Inhibitory effect (% reduction of specific activity)): -6.9%
inhibition at 1 min, 20 mM ([3]; human, stably transfected 293 cells expressing hOATP1B1, probe 3H-estrone sulfate, 20 mM iohexol, read-out: Inhibitory effect (% reduction of specific activity)): 5.5%
Compound: CC(=O)N(CC(O)CO)c1c(I)c(C(=O)NCC(O)CO)c(I)c(C(=O)NCC(O)CO)c1I (stereo not shown) [iohexol]
Expression of OCT2 [1]: downregulated
Iohexol clearance ([2]; healthy adults, 95% CI 7.08–7.68 L/h, ref 44 Olsson et al.): 7.32 L/h
Median renal clearance ([2]; healthy adults, interquartile range 6.36–7.50, ref 39 Sterner et al.): 6.78 L/h/1.73 m^2
Volume of distribution ([2]; healthy volunteers): 0.27 L/kg
